Measurements published in patent EP0367747A2, “Dideoxy-L-arabinitol derivatives as antiviral compounds” (G.D. Searle & Co., priority 1988, dated 1990).
Marks after values point to notes of the source that are not given here.

Columns and labels:
[1] = target: T1, Yeast alpha-glucosidase (Saccharomyces cerevisiae, UniProt P53341); experiment: Alpha-glucosidase inhibition assay, pH 7.4 (p-nitrophenol release); assay type: biochemical; settings: for inhibition at 1000 µM / inhibition at 100 µM: Table 5, read-out: α-Glucosidase % Inhibition; for inhibition at 1000 µM: at 1.0 mM
T1 construct: purchased Sigma
Procedure: (§1) Yeast alpha-glucosidase and almond beta-glucosidase activities were measured by a modification of the method of Evans, et al., Phytochemistry 22, 768-770 (1983). The modifications included 1) assay of activities at pH 7.4 in HEPES (N-2-hydroxyethylpiperazine-N′-2-ethanesulfonic acid) buffer, 2) measurement in 96 well microtiter plates and 3) inclusion of 10% DMSO in control and test samples. The release of p-nitrophenol from the substrate p-nitrophenylglycoside was measured spectrophotometrically in the presence and absence of test compound. Each assay included a known inhibitor of the enzyme as a standard. IC₅₀ values were determined for compounds which inhibited the enzymes more than 50% at a 1 millimolar concentration. To 100 µl 50 mM HEPES buffer, pH 7.4, in a microtiter plate, add 20 µl test compound in DMSO (DMSO alone in control), 40 µl (0.013 units) yeast alpha-glucosidase (Sigma) in HEPES buffer and pre-incubate at room temperature for 15 minutes. […] Absorption change was measured at 15 to 25 minutes (reaction was linear for at least 30 minutes). Each sample was tested in triplicate. IC₅₀ values were determined from the linear portion of the log concentration vs % inhibition curve obtained from a minimum of 3 points. Deoxynojirimycin was used as standard inhibitor.

[2] = test system: almond beta-glucosidase; experiment: Beta-glucosidase inhibition assay, pH 4.8 (p-nitrophenol release); assay type: biochemical; settings: for β-Glucosidase pH 4.8 % Inhibition: Table 5
Procedure: Yeast alpha-glucosidase and almond beta-glucosidase activities were measured by a modification of the method of Evans, et al., Phytochemistry 22, 768-770 (1983). The modifications included 1) assay of activities at pH 7.4 in HEPES (N-2-hydroxyethylpiperazine-N′-2-ethanesulfonic acid) buffer, 2) measurement in 96 well microtiter plates and 3) inclusion of 10% DMSO in control and test samples. The release of p-nitrophenol from the substrate p-nitrophenylglycoside was measured spectrophotometrically in the presence and absence of test compound. Each assay included a known inhibitor of the enzyme as a standard. IC₅₀ values were determined for compounds which inhibited the enzymes more than 50% at a 1 millimolar concentration. To 100 µl 50 mM sodium citrate buffer, pH 4.8, in a microtiter plate, add 15 µl test compound in DMSO (DMSO alone in control), 20 µl (.017 units) beta-glucosidase (Sigma) in citrate buffer and pre-incubate at room temperature for 15 minutes. Add 25 µl 2.50 mM p-nitrophenyl-beta-D-glucopyranside in citrate buffer, as substrate. Incubate at room temperature 20 minutes (reaction is linear for at least 30 minutes). Add 50 µl 0.4 M NaOH. Read absortion change at 405 nm in a Biotek EIA Autoreader. Each sample was tested in triplicate. IC₅₀ values were determined from the linear portion of the log concentration vs % inhibition curve obtained from a minimum of 3 points. Castanospermine was used as standard inhibitor.

[3] = test system: visna virus; experiment: Inhibition of visna virus in vitro (plaque reduction assay / 96 well plate assay) in SCP cells; assay type: cell-based; parameters: key to Antiviral Activity: A = active compound; I = inactive; settings: for EC50: inhibition of visna virus, read-out: EC₅₀; for Antiviral Activity: Table 4
Procedure: Various compounds as prepared above were tested for inhibition of visna virus in vitro in a plaque reduction assay as follows:
Sheep choroid plexus(SCP) cells were obtained from American Type Culture Collection (ATCC) catalogue number CRL 1700 and were routinely passaged in vitro in Dulbecco's Modified Eagles (DME) medium supplemented with 20% fetal bovine serum (FBS). SCP cells were passaged once per week at a 1:2 or 1:3 split ratio. Visna was titrated by plaque assay in six-well plates. Virus pools were stored at -70°C.
(§2) SCP cells were cultured in 6-well plates to confluence. Wells were washed two times with serum free Minimal Essential Medium (MEM) to remove FBS. 0.2ml of virus was added per well in MEM supplemented with 4mM glutamine and gentamycin. After 1 hour adsorption, the virus was aspirated from each well. The appropriate concentration of each compound in 5 ml of Medium 199 (M-199) supplemented with 2% lamb serum, 4mM glutamine, 0.5% agarose and gentamycin was added to each well. Cultures were incubated at 37°C in a humidified 5% CO₂ incubator for 3-4 weeks. To terminate the test: cultures were fixed in 10% formalin, the agar removed, the monolayers stained with 1% crystal violet and plaques counted. Each compound concentration was run in triplicate. […] 0 is no toxicity observed while 4 is total lysing of the cell monolayer.
The 96 well plate assay was performed similarly to the plaque assay above with modifications. SCP cells were seeded at 1 x 10⁴ cells per well in 0.1 ml DME medium. When confluent, the wells were washed with serum free MEM and 25ul of virus added in M-199 supplemented with 2% lamb serum. After 1 hour, 75uL of medium containing test compound was added to each well containing virus. After 2-3 weeks incubation the cytopathic effect of the virus was determined by staining with a vital stain. Cell viability was measured by determining stain density using a 96 well plate reader.

[4] = test system: Sheep choroid plexus(SCP) cells; experiment: Toxicity of compounds in control wells without virus, graded morphologically 0 to 4; assay type: cell-based; parameters: key: 0 = no toxicity; 4 = total cell lyses; settings: 0 to 4 scale
Procedure: as §2
Control wells without virus were completed to determine the toxicity of compounds.

[5] = test system: almond beta-glucosidase; experiment: Beta-glucosidase inhibition assay, pH 7.4 (p-nitrophenol release); assay type: biochemical; settings: for β-Glucosidase pH 7.4 % Inhibition: Table 5
Procedure: as §1, with “µl (0.136” for “µl (0.013”, “units) beta-glucosidase” for “units) yeast alpha-glucosidase”, “(reaction is” for “(reaction was”, “points. Castanospermine” for “points. Deoxynojirimycin”

T1 sequence (P53341 whole entry): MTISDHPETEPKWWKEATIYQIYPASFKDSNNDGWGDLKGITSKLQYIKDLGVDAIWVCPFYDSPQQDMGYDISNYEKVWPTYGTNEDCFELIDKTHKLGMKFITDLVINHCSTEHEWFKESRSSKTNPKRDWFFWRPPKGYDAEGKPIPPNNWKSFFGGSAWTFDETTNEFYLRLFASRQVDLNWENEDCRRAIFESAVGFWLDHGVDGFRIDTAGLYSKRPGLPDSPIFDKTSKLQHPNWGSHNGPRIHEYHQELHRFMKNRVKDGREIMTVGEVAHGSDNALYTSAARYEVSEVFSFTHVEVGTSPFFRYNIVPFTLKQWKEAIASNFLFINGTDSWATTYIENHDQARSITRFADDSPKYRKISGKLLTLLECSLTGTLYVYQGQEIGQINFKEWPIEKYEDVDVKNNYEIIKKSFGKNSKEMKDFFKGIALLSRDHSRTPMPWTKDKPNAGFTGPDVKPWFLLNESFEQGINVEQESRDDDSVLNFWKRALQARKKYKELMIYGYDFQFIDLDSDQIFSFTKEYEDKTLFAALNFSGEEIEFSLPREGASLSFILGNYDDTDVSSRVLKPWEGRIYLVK

SMILES	inhibition at 1000 µM [1] [%]	β-Glucosidase pH 4.8 % Inhibition ([2]; at 1.0 mM) [%]	EC50 ([3]; Visna-maedi virus) [mM]	β-Glucosidase pH 7.4 % Inhibition ([5]; at 1.0 mM) [%]	inhibition at 100 µM [1] [%]	β-Glucosidase pH 4.8 % Inhibition ([2]; at 100 µM (***)) [%***]	β-Glucosidase pH 7.4 % Inhibition ([5]; at 100 µM (***)) [%***]	Toxicity ([4]; Table 4, 0.1 mM Concn.)	Toxicity ([4]; Table 4, 1.0 mM Concn.)	Antiviral Activity ([3]; 0.01 mM Concn.)	Antiviral Activity ([3]; 0.1 mM Concn.)	Toxicity ([4]; Table 4, 0.01 mM Concn.)	other results
CC(=O)OC[C@H]1[C@H](OC(C)=O)[C@@H](OC(C)=O)CN1C(=O)OCc1ccccc1 [Example 20, 1,4-(Benzyloxycarbonylimino)-1,4-dideoxy-L-arabinitol, triacetate]	18	5	1	6	–	–	–	0	0	–	–	–	–
CC(=O)OCCN1C[C@H](OC(C)=O)[C@@H](OC(C)=O)[C@@H]1COC(C)=O [Example 3, 1,4-([2-Acetyloxyethyl]imino)-1,4-dideoxy-L-arabinitol, triacetate]	15	12	–	5	–	–	–	–	–	–	–	–	inhibition at 1 µM ([3]; Visna-maedi virus, Concentration 0.001 mM): -46%; inhibition at 10 µM ([3]; Visna-maedi virus, Concentration 0.01 mM): -64%; inhibition at 100 µM ([3]; Visna-maedi virus, Concentration 0.1 mM): 72%; inhibition at 1000 µM ([3]; Visna-maedi virus, Concentration 1.0 mM): 90%; Toxicity ([4]; Concentration 0.001 mM): 0; Toxicity ([4]; Concentration 0.01 mM): 0; Toxicity ([4]; Concentration 0.1 mM): 0; Toxicity ([4]; Concentration 1.0 mM): 0
CN1CC(O)C(O)C1CO [Example 18, 1,4-(Methylimino)-1,4-dideoxy-L-arabinitol]	–	–	0.1	–	–	–	–	–	–	–	–	–	IC50 ([1]; Table 3, pH 7.4, read-out: α-glucosidase IC₅₀): 46 µM; IC50 ([2]; Table 3, at pH 4.8, read-out: β-glucosidase IC₅₀): 36 µM; IC50 ([5]; Table 3, at pH 7.4, read-out: β-glucosidase IC₅₀): 23 µM

Further lines, with some results ahead:

inhibition at 1000 µM [1] [%]	β-Glucosidase pH 4.8 % Inhibition ([2]; at 1.0 mM) [%]	EC50 ([3]; Visna-maedi virus) [mM]	β-Glucosidase pH 7.4 % Inhibition ([5]; at 1.0 mM) [%]	inhibition at 100 µM [1] [%]	β-Glucosidase pH 4.8 % Inhibition ([2]; at 100 µM (***)) [%***]	β-Glucosidase pH 7.4 % Inhibition ([5]; at 100 µM (***)) [%***]	SMILES	Toxicity ([4]; Table 4, 0.1 mM Concn.)	Toxicity ([4]; Table 4, 1.0 mM Concn.)	Antiviral Activity ([3]; 0.01 mM Concn.)	Antiviral Activity ([3]; 0.1 mM Concn.)	Toxicity ([4]; Table 4, 0.01 mM Concn.)	other results
–	–	–	–	41	2	5	CCC(=O)OC[C@H]1[C@H](OC(=O)CC)[C@@H](OC(=O)CC)CN1C(=O)OCc1ccccc1 [Example 29, 1,4-(Benzyloxycarbonylimino)-1,4-dideoxy-L-arabinitol, tripropionate]	0	–	A	A	0	Antiviral Activity ([3]; 0.001 mM Concn.): A; Toxicity ([4]; Table 4, 0.001 mM Concn.): 0
–	–	1	–	20	1	1	CCCCN1CC(OC(=O)CCC)C(OC(=O)CCC)C1COC(=O)CCC [Example 26, 1,4-(Butylimino)-1,4-dideoxy-L-arabinitol, tributyrate]	0	2	–	–	–	–
30	0	1	6	–	–	–	CC(=O)OC[C@H]1[C@H](OC(C)=O)[C@@H](OC(C)=O)CN1C(=O)Cc1ccccc1 [Example 28, 1,4-(Phenylacetylimino)-1,4-dideoxy-L-arabinitol, triacetate]	0	1	A	A	0	Antiviral Activity ([3]; 1.0 mM Concn.): A
